Here are results for seven molecules from article PMC10444810, “Induction of open-form bile canaliculus formation by hepatocytes for evaluation of biliary drug excretion” (Communications Biology, 2023).

Series [1] can be described thus: Reported human in vivo biliary excretion clearance and intrinsic clearance estimated from it (Eq. 4).
The test system of series [2] is sandwich-cultured PXB-cells. The conditions noted are these: human, 1 μM.
The conditions of series [3]: cited from earlier work; for Observed in vivo CLbile: human.
For series [4] the following is noted: cited from earlier work.
The conditions of series [5]: blood/plasma concentration ratio, cited from earlier work.
The nature of series [6]: icHep permeation assay (sinusoidal to bile side) to estimate drug biliary excretion clearance. Particulars: human.
For series [7], the target named is T1, OCT1 (Homo sapiens, UniProt O15245).
T1 sequence (O15245 1-554): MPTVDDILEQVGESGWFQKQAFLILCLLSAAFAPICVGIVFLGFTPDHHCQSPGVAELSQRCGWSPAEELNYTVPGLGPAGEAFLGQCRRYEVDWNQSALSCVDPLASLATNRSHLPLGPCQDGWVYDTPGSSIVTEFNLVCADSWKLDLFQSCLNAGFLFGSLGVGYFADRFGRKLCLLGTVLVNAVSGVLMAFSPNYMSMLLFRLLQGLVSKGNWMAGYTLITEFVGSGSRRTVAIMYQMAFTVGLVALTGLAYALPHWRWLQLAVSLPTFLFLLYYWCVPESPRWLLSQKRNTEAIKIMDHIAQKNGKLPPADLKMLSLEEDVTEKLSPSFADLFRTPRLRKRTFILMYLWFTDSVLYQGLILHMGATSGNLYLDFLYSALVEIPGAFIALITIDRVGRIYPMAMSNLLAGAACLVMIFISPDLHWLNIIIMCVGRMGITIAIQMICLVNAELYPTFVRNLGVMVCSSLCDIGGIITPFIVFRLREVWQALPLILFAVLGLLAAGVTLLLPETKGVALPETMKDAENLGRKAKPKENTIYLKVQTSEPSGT
Particulars: for Uptake / CLuptake: single wells; for CLuptake, Mean: mean of wells.

Series [8] concerns primary human hepatocytes / PXB-cells. As to the kind of experiment: Counting hepatocyte bile canaliculi opening to the culture equipment (hemi-lumen formation rate). The conditions noted are these: for hemi-lumen formation rate: PXB-cells (donor), supports individually coated with each claudin; for Open bile canalicular formation rate (%) Mean / Open bile canalicular formation rate (%): icHep (JFC), claudin coating; for Open bile canalicular formation rate (%) Mean: mean of 3; for Open bile canalicular formation rate (%): single replicate. Format: cell-based. On the procedure: Transwell^TM permeable support used was coated with 50 μg/ml rat tail collagen I (Corning) in 0.02 N acetic acid at room temperature for 1 h. Transwell^TM was washed twice with PBS, then the in vitro-synthesised claudin-1, -2, -3, and -9 proteins were applied to Transwell^TM at a density of 750 ng/cm^2 each and incubated at room temperature for 1 h. Transwell^TM was washed twice with PBS before seeding cells. Cryopreserved human hepatocytes (Donor ID. HU1663) were purchased from Thermo Fisher Scientific and thawed using CHRM. The hepatocytes were then diluted with WEM containing CM3000. PXB-cells (Donor ID. JFC, and HUM181001B) were obtained from PhoenixBio (Hiroshima, Japan) as described previously. […] PXB-cells were resuspended in 2% DMSO-supplemented hepatocyte growth medium (d-HCGM)[27]. Cryopreserved human hepatocytes and PXB-cells were seeded at a density of 2.1 × 10^5 cells/cm^2 in the protein-coated culture equipment. After 4 h of incubation, the culture medium was replaced with fresh culture medium to remove the unattached cells. After 24 h of incubation, the cells were cultured in d-HCGM supplemented with 250 μg/ml Matrigel. The spent medium was replaced with fresh medium every 3 days. Donor information for the human hepatocytes used is listed in Supplementary Table 2.
To count the open- and closed-type bile canaliculi, MRP2 immunostaining was performed using the Z-stack function of a confocal microscope (LSM710; Carl Zeiss, Oberkochen, Germany). Immunostaining was performed as previously described. The ratio of open-type bile canaliculi to the total number of bile canaliculi was calculated according to Eq. (1), and the value obtained was evaluated as the induction rate of open-type bile canaliculi. Here, Aopen bile canaliculi and Abile canaliculi indicate the number of open-type bile canaliculi and total number of bile canaliculi, respectively.1 Formationrate%=Aopenbilecanaliculi/Abilecanaliculi×100

The mark [9] stands for this setting: estimated from observed CLbile with fp, Rb, Qh 1400 ml/min.
Where [10] appears, read: estimated from observed in vivo CLbile with fp, Rb and Qh 1400 ml/min.
Where [11] appears, read: reported in vivo biliary excretion clearance.
Setting [12] is: unbound fraction of the plasma protein.
Setting [13] is: unbound fraction, reported value.
[14] abbreviates: Biliary excretion clearance, in vitro, observed, CLbile, int, icHep (HUM181001B), CLbile,app of icHep minus control cells.

Values joined by “and” are separate entries in the source; they are usually repeats but may differ in a detail not shown here. Identical values can stand only once. Like-named read-outs stand apart in the source and are kept apart here.

With `CN/C(=N/CCSCc1nc[nH]c1C)NC#N` [Cimetidine, cimetidine], the “Observed in vivo CLbile, int” value in series [1] (setting [9]) and in series [1] (setting [10]) was 12.3 mL/min in each case. The “BEI (%) Mean” value in series [2] (2 min) amounted to 48.1%; in series [2] (5 min), 32.5%; in series [2] (10 min), 19.7%; in series [2] (20 min) it was 19.6%. The “Predicted in vivo CLbile, int, Mean” value in series [2] (2 min) was 2714 mL/min; in series [2] (5 min), 478 mL/min; in series [2] (10 min), 126 mL/min; in series [2] (20 min) it was 60.3 mL/min. Further, the “Observed in vivo CLbile” value in series [3] (setting [11]) and in series [3] (reported value) was 9.9 mL/min in each case. The “fp, unbound fraction of the plasma protein” value in series [4] (reported value) was 0.81[32]. Moreover, the fp in series [4] (setting [12]) and in series [4] (setting [13]) was 0.81 each time. For the same molecule, the Rb in series [5] (reported value) and in series [5] was 0.97 in each case. The hepatocyte CLint at 1 μM in series [6] was 0.869 ± 0.0152 µL/min/1e6 cells; in series [6] (setting [14]), 0.453 ± 0.163 µL/min/1e6 cells.

In the case of `CC[C@H]1OC(=O)[C@H](C)[C@@H](O[C@H]2C[C@@](C)(OC)[C@@H](O)[C@H](C)O2)[C@H](C)[C@@H](O[C@@H]2O[C@H](C)C[C@H](N(C)C)[C@H]2O)[C@](C)(O)C[C@@H](C)C(=O)[C@H](C)[C@@H](O)[C@]1(C)O` [Erythromycin, erythromycin], the “Observed in vivo CLbile, int” value in series [1] (setting [9]) and in series [1] (setting [10]) was 285 mL/min in each case. For the same molecule, the “BEI (%) Mean” value was 46.3% in series [2] (2 min), 22.5% in series [2] (5 min), 30.0% in series [2] (10 min) and 54.8% in series [2] (20 min). Moreover, the “Predicted in vivo CLbile, int, Mean” value was 2262 mL/min in series [2] (2 min), 289 mL/min in series [2] (5 min), 238 mL/min in series [2] (10 min) and 310 mL/min in series [2] (20 min). For the same molecule, the “Observed in vivo CLbile” value in series [3] (setting [11]) and in series [3] (reported value) was 80.3 mL/min throughout. Moreover, in series [3] (in vivo), the “Biliary excretion clearance, in vivo, observed, CLbile” value is 80.3[36] ml/min. Besides, in series [4] (plasma), the “fp, unbound fraction of the plasma protein” value was 0.305[37]. Moreover, the fp in series [4] (setting [12]) and in series [4] (setting [13]) was 0.305 in each case. For the same molecule, the Rb in series [5] (reported value) and in series [5] was 0.75 each time. For the same molecule, the hepatocyte CLint at 1 μM in series [6] was 0.732 ± 0.0721 µL/min/1e6 cells; in series [6] (setting [14]), 0.793 ± 0.0723 µL/min/1e6 cells.

With `CN(C)C(=N)N=C(N)N` [Metformin], the Uptake was 2.903 ul/106 cells and 3.372 ul/106 cells and 2.496 ul/106 cells and 3.301 ul/106 cells in series [7] (icHep (HUM181001B), incubation time 0.5 min); 5.838 ul/106 cells and 5.176 ul/106 cells and 6.237 ul/106 cells and 6.072 ul/106 cells in series [7] (icHep (HUM181001B), incubation time 1 min); 12.5578 ul/106 cells and 11.8508 ul/106 cells and 13.1191 ul/106 cells and 15.8618 ul/106 cells in series [7] (icHep (HUM181001B), incubation time 2 min); 32.1771 ul/106 cells and 34.4238 ul/106 cells and 29.3661 ul/106 cells and 33.2229 ul/106 cells in series [7] (icHep (HUM181001B), incubation time 5 min); 3.7065 ul/106 cells and 4.783 ul/106 cells and 4.1818 ul/106 cells and 4.442 ul/106 cells in series [7] (icHep (JFC), incubation time 0.5 min); 7.468 ul/106 cells and 9.292 ul/106 cells and 7.7376 ul/106 cells and 10.2512 ul/106 cells in series [7] (icHep (JFC), incubation time 1 min). For the same molecule, the Uptake in series [7] (icHep (JFC), incubation time 2 min) was 17.213 ul/106 cells and 18.5255 ul/106 cells and 16.0946 ul/106 cells and 17.048 ul/106 cells; in series [7] (icHep (JFC), incubation time 5 min) it was 50.6594 ul/106 cells and 43.7801 ul/106 cells and 38.495 ul/106 cells and 43.9119 ul/106 cells. For the same molecule, the “CLuptake, Mean” value in series [7] (icHep (HUM181001B)) is given as 7.52 ul/min/106 cells; in series [7] (icHep (JFC)), 8.82 ul/min/106 cells. Besides, the CLuptake in series [7] (icHep (HUM181001B)) is 6.72 ul/min/106 cells and 6.68 ul/min/106 cells and 6.88 ul/min/106 cells and 9.79 ul/min/106 cells; in series [7] (icHep (JFC)) it was 7.5 ul/min/106 cells and 9.0 ul/min/106 cells and 7.1 ul/min/106 cells and 11.6 ul/min/106 cells.

B1: claudin-3: human claudin-3 protein from E. coli cell-free synthesis, coated on the permeable support (protein, UniProt O15551 1-220, looked up)
Claudin-3: MSMGLEITGTALAVLGWLGTIVCCALPMWRVSAFIGSNIITSQNIWEGLWMNCVVQSTGQMQCKVYDSLLALPQDLQAARALIVVAILLAAFGLLVALVGAQCTNCVQDDTAKAKITIVAGVLFLLAALLTLVPVSWSANTIIRDFYNPVVPEAQKREMGAGLYVGWAAAALQLLGGALLCCSCPPREKKYTATKVVYSAPRSTGPGASLGTGYDRKDYV
On to B1, for which, in series [8], the hemi-lumen formation rate is reported as 38.6 ± 8.1%; the “Open bile canalicular formation rate (%) Mean” value was 38.6%; the “Open bile canalicular formation rate (%)” value is 34.6% and 33.3% and 48.0%.

B2: claudin-1: human claudin-1 protein from E. coli cell-free synthesis, coated on the permeable support (protein, UniProt O95832 1-211, looked up)
Claudin-1: MANAGLQLLGFILAFLGWIGAIVSTALPQWRIYSYAGDNIVTAQAMYEGLWMSCVSQSTGQIQCKVFDSLLNLSSTLQATRALMVVGILLGVIAIFVATVGMKCMKCLEDDEVQKMRMAVIGGAIFLLAGLAILVATAWYGNRIVQEFYDPMTPVNARYEFGQALFTGWAAASLCLLGGALLCCSCPRKTTSYPTPRPYPKPAPSSGKDYV
For B2, in series [8], the hemi-lumen formation rate is reported as 44.5 ± 4.8%; the “Open bile canalicular formation rate (%) Mean” value is listed as 44.5%; the “Open bile canalicular formation rate (%)” value was 50.0% and 41.5% and 42.0%.

B3: claudin-9: human claudin-9 protein from E. coli cell-free synthesis, coated on the permeable support (protein, UniProt O95484 1-217, looked up)
Claudin-9: MASTGLELLGMTLAVLGWLGTLVSCALPLWKVTAFIGNSIVVAQVVWEGLWMSCVVQSTGQMQCKVYDSLLALPQDLQAARALCVIALLLALLGLLVAITGAQCTTCVEDEGAKARIVLTAGVILLLAGILVLIPVCWTAHAIIQDFYNPLVAEALKRELGASLYLGWAAAALLMLGGGLLCCTCPPPQVERPRGPRLGYSIPSRSGASGLDKRDYV
In the case of B3, in series [8], the hemi-lumen formation rate was determined as 35.9 ± 6.4%; the “Open bile canalicular formation rate (%) Mean” value was determined as 35.9%; the “Open bile canalicular formation rate (%)” value was 30.3% and 42.9% and 34.5%.

B4: claudin-2: human claudin-2 protein from E. coli cell-free synthesis, coated on the permeable support (protein, UniProt P57739 1-230, looked up)
Claudin-2: MASLGLQLVGYILGLLGLLGTLVAMLLPSWKTSSYVGASIVTAVGFSKGLWMECATHSTGITQCDIYSTLLGLPADIQAAQAMMVTSSAISSLACIISVVGMRCTVFCQESRAKDRVAVAGGVFFILGGLLGFIPVAWNLHGILRDFYSPLVPDSMKFEIGEALYLGIISSLFSLIAGIILCFSCSSQRNRSNYYDAYQAQPLATRSSPRPGQPPKVKSEFNSYSLTGYV
As for B4, in series [8], the hemi-lumen formation rate is listed as 48.9 ± 12%; the “Open bile canalicular formation rate (%) Mean” value is 48.9%; the “Open bile canalicular formation rate (%)” value was 36.6% and 60.0% and 50.0%.
